Experiments:
PC-3 tumor cells = experiment: Cell uptake assay on PC-3 tumor cells; assay type: cell-based, human; details: PC-3 cells, 120 min
Protocol: In the cell uptake experiment, PC-3 cells were seeded into 12-well plates at a density of 5×10^5 cells per well for overnight incubation. Cells were rinsed 3 times with phosphate-buffered saline (PBS), followed by the addition of ^18F-FB-RGD, ^18F-FB-BBN, or ^18F-BBN-RGD to the cultured wells in triplicate (about 2 μCi/well). […] The cell lysate was collected in measurement tubes for counting. The cell uptake was normalized in terms of added radioactivity.
The cell uptake studies were performed as we have previously described with some modifications (Chen et al., Mol Imaging Biol. (2004) […]; Cai et al., (2006) J. Nuc. Med. 47: 1172-1180, incorporated herein by reference in their entireties). Briefly, PC-3 cells were seeded into 12-well plates at a density of 5×10^5 cells per well and incubated (about 18 kBq/well) with ^68Ga-labeled tracers at 37° C. for 15, 30, 60, and 120 min. Tumor cells were then washed three times with chilled PBS and harvested by trypsinization with 0.25% trypsin/0.02% EDTA (Invitrogen). The cell suspensions were collected and measured in a y counter (Packard, Meriden, Conn.). The cell uptake was expressed as the percent added dose (% AD) after decay correction. Experiments were performed twice with triplicate wells. For efflux studies, ^68Ga-labeled tracers (about 18 kBq/well) were first incubated with PC-3 cells in 12-well plates for 1 h at 37° C. to allow internalization. Then cells were washed twice with PBS, and incubated with cell culture medium for 15, 30, and 60 min. After washing three times with PBS, cells were harvested by trypsinization with 0.25% trypsin/0.02% EDTA. The cell suspensions were collected and measured in a γ counter. Experiments were performed twice with triplicate wells. Data are expressed as percent added dose after decay correction.

T47D tumor cells = experiment: Cell uptake assay on T47D tumor cells; assay type: cell-based, human; details: 120 min, 37° C., n=3
Protocol: The cells suspensions were collected and measured in a y counter (Packard, Meriden, Conn.). The cell uptake was expressed as the percent added dose (% AD) after decay correction. Experiments were performed twice with triplicate wells.

in vivo = details: mouse, in vivo, iv, 5.5 MBq, total radioactivity
Protocol: (a) PET scans and image analysis were performed using a micro-PET R4 rodent model scanner (Siemens Medical Solutions) as reported by Li et al., J. Nucl. Med. (2007) 48: 1162-1171 and Wu et al., J Nucl. Med. (2005) 46: 1707-1718, both of which are incorporated herein by reference in their entireties). […] Five-minute static PET images were then acquired at 0.5, 1, and 2 h after injection. The images were reconstructed by a 2-dimensional ordered-subsets expectation maximum (OSEM) algorithm. No attenuation or scatter correction was applied. […] The 5-min static PET scans were then acquired at 1 hr after injection. For each small-animal PET scan, regions of interest (ROIs) were drawn over the tumor, normal tissue, and major organs by using vendor software (ASI Pro 5.2.4.0) on decay-corrected whole-body coronal images. The average radioactivity concentration (accumulation) within a tumor or an organ was obtained from mean pixel values within the multiple ROI volume, which were converted to counts/mL/min using a conversion factor. Assuming a tissue density of 1 g/mL, the ROIs were converted to counts/g/min, and then divided by the administered activity to obtain an imaging ROI-derived percentage injected dose per gram of tissue (% ID/g).
For dynamic PET, 30-min scans (1×30 s, 4×1 min, 1×1.5 min, 4×2 min, 5×3 min; total 15 frames) were started 1 min after injection, and two 5-min static PET images were also acquired at 1 h and 2 h after injection. […] For each small-animal PET scan, regions of interest (ROIs) were drawn over the tumor, normal tissue, and major organs using vendor software ASI Pro 5.2.4.0 on decay-corrected whole-body coronal images. The maximum radioactivity concentrations (accumulation) within a tumor or an organ were obtained from mean pixel values within the multiple ROI volume, and were converted to megabecquerels per milliliter per minute using a conversion factor. These values were then divided by the administered activity to obtain (assuming a tissue density of 1 g/ml) an image ROI-derived percent injected dose per gram (% ID/g).
The images were reconstructed using a 2-dimensional ordered-subsets expectation maximum algorithm without attenuation or scatter correction.
For each small-animal PET scan, regions of interest were drawn over each tumor, over normal tissue, and over major organs using vendor software (ASI Pro, version 5.2.4.0) on decay-corrected whole-body coronal images. The maximum radioactivity concentration (accumulation) within a tumor or an organ was obtained from the mean pixel values within the multiple-region-of-interest volume, which were converted to MBq/mL/min using a conversion factor. Assuming a tissue density of 1 g/mL, the regions of interest were converted to MBq/g/min and then divided by the administered activity to obtain an imaging region-of-interest-derived percentage injected dose (% ID)/g.

[1] = Small-animal PET of MDA-MB-435 tumor-bearing mice; details: female, athymic nude, mouse, in vivo, iv, total radioactivity, MDA-MB-435 tumor uptake
[2] = MicroPET of T47D tumor-bearing mice; assay type: in vivo; details: female, nude, mouse, T47D tumor, iv, total radioactivity, orthotopic model
Source text: The MDA-MB-231, MDA-MB468, BT474, BT-20, T47D, MCF-7 and MDA-MB435 human breast cancer cell lines were all obtained from the American Type Culture Collection (ATCC) and maintained under standard conditions according to ATCC. The MDA-MB435 tumor model was established by orthotopic injections of 5×10^6 cells into the right mammary fat pad of female athymic nude mice. For T47D tumor model establishment, the female nude mice were first subcutaneously implanted with 60-day release 17β-estradiol pellets (Innovative Research of America, Sarasota, Fla.) in the left neck. One day after the estradiol implantation, 1×10^7 T47D cells were orthotopically injected into the right mammary fat pad of the nude mice. The mice were subjected to microPET studies when the tumor volume reached 100-300 mm^3 (2-3 weeks for MDA-MB-435, and 4-5 wk for T47D).
Quantification of tumor and major organ activity accumulation in the microPET scans was realized by measuring the regions of interest (ROIs) that encompassing the entire organ on the coronal images.

[3] = male, athymic nude, Tumor uptake

CSCC[C@H](NC(=O)[C@H](CC(C)C)NC(=O)[C@H](Cc1c[nH]cn1)NC(=O)CNC(=O)[C@@H](NC(=O)[C@H](C)NC(=O)[C@H](Cc1c[nH]c2ccccc12)NC(=O)[C@H](CCC(N)=O)NC(=O)CCCCCNC(=O)CC[C@H](NC(=S)Nc1ccc(C[C@H]2CN(CC(=O)O)CCN(CC(=O)O)CCN2CC(=O)O)cc1)C(=O)NCCCC[C@@H]1NC(=O)[C@@H](Cc2ccc(O)cc2)NC(=O)[C@H](CC(=O)O)NC(=O)CNC(=O)[C@H](CCCNC(=N)N)NC1=O)C(C)C)C(N)=O [^64Cu-NOTA-RGD-BBN, metal not drawn]
cell uptake value (PC-3 tumor cells): 2.94 % added dose
T47D cell uptake value (T47D tumor cells): 5.30±0.53 % AD
tissue uptake at 0.5 h (in vivo; male, athymic nude, Blood uptake): < 1 %ID/g
tissue uptake at 1 h (in vivo; male, athymic nude, PC-3 tumor uptake with BBN blocking): 0.76 ± 0.36 %ID/g
tissue uptake at 1 h (in vivo; male, athymic nude, PC-3 tumor uptake with RGD and BBN blocking): 0.54 ± 0.41 %ID/g
tissue uptake at 1 h (in vivo; male, athymic nude, PC-3 tumor uptake with RGD blocking): 1.64 ± 0.77 %ID/g
tissue uptake at 0.5 h (in vivo; [3]): 3.06 ± 0.11 %ID/g
tissue uptake at 1 h (in vivo; [3]): 2.78 ± 0.56 %ID/g
tissue uptake at 4 h (in vivo; [3]): 2.21 ± 0.49 %ID/g
tissue uptake at 20 h (in vivo; [3]): 2.04 ± 0.35 %ID/g
tissue uptake at 24 h (in vivo; [3]): 2.04 ± 0.35 %ID/g
tissue uptake (in vivo; male, athymic nude, liver uptake): 3.5 %ID/g
tissue uptake at 1 h (in vivo; Blood uptake): 0.66 ± 0.15 %ID/g
tissue uptake at 4 h (in vivo; Blood uptake): 0.49 ± 0.07 %ID/g
tissue uptake at 20 h (in vivo; Blood uptake): 0.5 ± 0.15 %ID/g
tissue uptake at 0.5 h (in vivo; Kidney uptake): 4.09 ± 0.81 %ID/g
tissue uptake at 1 h (in vivo; Kidney uptake): 3.06 ± 0.25 %ID/g
tissue uptake at 4 h (in vivo; Kidney uptake): 2.3 ± 0.41 %ID/g
tissue uptake at 20 h (in vivo; Kidney uptake): 1.87 ± 0.41 %ID/g
tissue uptake at 0.5 h (in vivo; Liver uptake): 3.46 ± 0.26 %ID/g
tissue uptake at 1 h (in vivo; Liver uptake): 2.8 ± 1.15 %ID/g
tissue uptake at 4 h (in vivo; Liver uptake): 1.83 ± 0.68 %ID/g
tissue uptake at 20 h (in vivo; Liver uptake): 0.98 ± 0.4 %ID/g
tissue uptake at 4 h [1]: 1.79 ± 0.2 %ID/g
tissue uptake at 24 h [1]: 1.29 ± 0.09 %ID/g
tissue uptake at 4 h ([2]; 4 h): 1.94 ± 0.22 %ID/g
tissue uptake at 24 h ([2]; 24 h): 1.38 ± 0.16 %ID/g

Source: US20100015058A1, “RADIOLABELED BBN-RGD HETERODIMERS FOR CANCER TARGETING” (STANFORD UNIVERSITY, priority 2008, published 2010)
